Among the data in patent US10562869B2, “Oxadiazole compounds” (REMYND NV, priority 2014, dated 2020) are EC50 values, retold here.

SMILES strings stand for the structures.

This test has as its system M17_3SYN cells. Nature of the test: Paraquat-induced cytotoxicity (LDH) in α-synuclein over-expressing M17_3SYN neuroblastoma cells. The test is classed as cell-based, human. The following applies: Homo sapiens, Neuroblastoma cell, 48 h, toxicity inhibition (LDH) in M17_3SYN cells challenged with 6 mM paraquat, 2 days; read-out: SYN EC50. An excerpt: A α-synuclein expression plasmid was constructed by subcloning the NcoI/XhoI fragment from 212T-SYN(WT) (Griffioen et al., Biochem Biophys Acta (2006) 1762(3):312-318) containing the cDNA of human wild type α-synuclein correspondingly into a standard mammalian expression vector pcDNA3.1 resulting in plasmid pcDNA3.1-SYNwt. Plasmids pcDNA3.1 and pcDNA3.1-SYNwt were transfected into human neuroblastoma cells (BE-M17; ATCC No. CRL-2267™) using lipofectamine reagent and subsequently, independent clonal cell lines with the plasmids stably integrated into the genome were selected by antibiotic resistance selection (Geneticin (G418)), resulting in cell lines M17.pcDNA3 and M17_3SYN. Overexpression of α-synuclein in the M17_3SYN cell line was confirmed by Western blot analysis.
Due to the high levels of α-synuclein, M17_3SYN cells were sensitive to paraquat, a well-known risk factor Parkinson's disease and of synuclein-dependent neuronal degeneration. Cytotoxicity of cells was measured by quantification of lactate dehydrogenase (LDH) levels. In dead cells, LDH leaked out of the cells into the medium due to a loss of plasma-membrane integrity.
[…], primary pre-cultures of M17.pcDNA3 (as possible control) and M17_3SYN cells were prepared, starting from a stock culture, at a density of 20.000-40.000 cells/cm2 in culture medium (Opti-MEM® Reduced Serum Medium with Phenol Red (Invitrogen, Cat. 31985-047) supplemented with 10% FCS, 1 mM sodium pyruvate, 1×NEAA, 500 μg/ml G418 and 0.5×antibiotic/antimycotic (ABAM)). 3 days later these primary pre-cultures were used as a starting point to make secondary pre-cultures at a density of 50.000-100.000 cells/cm^2. At the day of the experiment these secondary precultures were diluted to ˜0.5·10^6 cells/ml in detection medium (Opti-MEM® Reduced-Serum Medium without Phenol Red (Invitrogen, Cat. 11085-021) supplemented with 10% FCS, 1 mM sodium pyruvate, 1×NEAA, 500 μg/ml G418 and 0.5×ABAM) and 60 μL of this suspension was dispensed per well into a 96-well microtiter plate. After 3 hours of incubation at 37° C./5% CO2 an equal volume of detection medium containing a final concentration of 6 mM Paraquat was added and subsequently incubated for 2 days at 37° C./5% CO2. Then LDH activity was determined using the Promega Cytotox 96 Non-Radioactive cytotoxicity assay (Promega, Cat. G1780), according to the manufacturer's instructions. Cytotoxicity was defined as the ratio of LDH relative to the total LDH in the cells and supernatant.
The assay described above using the M17_3SYN cell line allowed screening compounds for their ability to decrease cytotoxicity in PQ-challenged cells. Compounds of the invention were tested for their ability to decrease toxicity at different concentrations, ranging from low non-effective concentrations to high effective concentrations. Afterwards, a dose-dependent inhibition curve was used to calculate the EC50. A compound was considered to be active in this test when it inhibited toxicity by more than 20% relative to untreated M17_3SYN cells at a concentration of 10 μM or lower.

In the case of `CCOc1ccc(S(=O)(=O)N2CCN(c3nc(Cc4cccc(F)c4)no3)CC2)cc1` [Cmpd091, 1-(4-Ethoxy-benzenesulfonyl)-4-[3-(3-fluoro-benzyl)-[1,2,4]oxadiazol-5-yl]-piperazine], the EC50 stood at 57 nM.

For `COc1ccc(S(=O)(=O)N2CCN(c3nc(C(F)(F)c4ccc(Cl)cc4)no3)CC2)cc1` [Cmpd142, 1-{3-[(4-Chloro-phenyl)-difluoro-methyl]-[1,2,4]oxadiazol-5-yl}-4-(4-methoxy-benzenesulfonyl)-piperazine], the EC50 stood at 24 nM.

For the compound `O=S(=O)(c1ccc(OC(F)F)cc1)N1CCN(c2nc(C(F)(F)c3ccc(F)cc3)no2)CC1` [Cmpd148, 1-{3-[Difluoro-(4-fluoro-phenyl)-methyl]-[1,2,4]oxadiazol-5-yl}-4-(4-difluoromethoxy-benzenesulfonyl)-piperazine], the EC50 came to 34 nM.

In the case of `CC(C)(c1ccccc1)c1noc(N2CCN(S(=O)(=O)c3ccc(OC(F)F)cc3)CC2)n1` [Cmpd196, 1-(4-Difluoromethoxy-benzenesulfonyl)-4-[3-(1-methyl-1-phenyl-ethyl)-[1,2,4]oxadiazol-5-yl]-piperazine], the EC50 was 8 nM.

As for `CSc1ccc(S(=O)(=O)N2CCN(c3nc(C(C)(C)c4cccc(Cl)c4)no3)CC2)cc1` [Cmpd155, 1-{3-[1-(3-Chloro-phenyl)-1-methyl-ethyl]-[1,2,4]oxadiazol-5-yl}-4-(4-methylsulfanyl-benzenesulfonyl)-piperazine], the EC50 was determined as 2 nM.

`CCCc1noc(N2CCN(S(=O)(=O)c3ccc(OC)cc3)CC2)n1` [Cmpd207, 5-(4-((4-Methoxyphenyl)sulfonyl)piperazin-1-yl)-3-propyl-1,2,4-oxadiazole]: the EC50 turned out to be 406 nM.

On to `CCOc1ccc(S(=O)(=O)N2CCN(c3nc(C(F)(F)c4ccc(F)cc4)no3)CC2)cc1` [Cmpd147, 1-{3-[Difluoro-(4-fluoro-phenyl)-methyl]-[1,2,4]oxadiazol-5-yl}-4-(4-ethoxy-benzenesulfonyl)-piperazine], for which the EC50 is 22 nM.

As for `O=S(=O)(c1ccc(OC(F)F)cc1)N1CCN(c2nc(Cc3ccc(F)c(F)c3)no2)CC1` [Cmpd101, 1-[3-(3,4-Difluoro-benzyl)-[1,2,4]oxadiazol-5-yl]-4-(4-difluoromethoxy-benzenesulfonyl)-piperazine], the EC50 turned out to be 50 nM.

As for `CSc1ccc(S(=O)(=O)N2CCN(c3nc(CC4CC4)no3)CC2)cc1` [Cmpd161, 3-(Cyclopropylmethyl)-5-(4-((4-(methylthio)phenyl)sulfonyl)piperazin-1-yl)-1,2,4-oxadiazole], the EC50 amounted to 23 nM.

Turning to `CCC(c1ccccc1)c1noc(N2CCN(S(=O)(=O)c3ccc(OC)cc3)CC2)n1` (stereo not drawn) [Cmpd044, 5-(4-((4-Methoxyphenyl)sulfonyl)piperazin-1-yl)-3-(1-phenylpropyl)-1,2,4-oxadiazole], the EC50 turned out to be 15 nM.

On to `CCOc1ccc(S(=O)(=O)N2CCN(c3nc(Cc4cccc(Cl)c4)no3)CC2)cc1` [Cmpd073, 1-[3-(3-Chloro-benzyl)-[1,2,4]oxadiazol-5-yl]-4-(4-ethoxy-benzenesulfonyl)-piperazine], for which the EC50 came out at 33 nM.

Consider `CCCCc1noc(N2CCN(S(=O)(=O)c3ccc(OC)cc3)CC2)n1` [Cmpd208, 3-Butyl-5-(4-((4-methoxyphenyl)sulfonyl)piperazin-1-yl)-1,2,4-oxadiazole], for which the EC50 came out at 98 nM.

Consider `CCOc1ccc(S(=O)(=O)N2CCN(c3nc(C(CC)c4ccccc4)no3)CC2)cc1` (stereo not drawn) [Cmpd045, 1-(4-Ethoxy-benzenesulfonyl)-4-[3-(1-phenyl-propyl)-[1,2,4]oxadiazol-5-yl]-piperazine], for which the EC50 turned out to be 18 nM.

With `COc1ccc(S(=O)(=O)N2CCN(c3nc(COc4cccnc4)no3)CC2)cc1` [Cmpd204, 5-(4-((4-Methoxyphenyl)sulfonyl)piperazin-1-yl)-3-((pyridin-3-yloxy)methyl)-1,2,4-oxadiazole], the EC50 worked out at 65 nM.

`CCOc1ccc(S(=O)(=O)N2CCN(c3nc(CC(F)(F)F)no3)CC2)cc1` [Cmpd166, 5-(4-((4-Ethoxyphenyl)sulfonyl)piperazin-1-yl)-3-(2,2,2-trifluoroethyl)-1,2,4-oxadiazole]: the EC50 turned out to be 368 nM.
